Results on 28 compounds are retold here after ChEMBL document CHEMBL5365421, “Design, synthesis, antitumor activity, and molecular dynamics simulations of novel sphingosine kinase 2 inhibitors” (Bioorg Med Chem, 2023).

In one assay the test system is U-937. The assay is described as follows: Antiproliferative activity against human U-937 cells assessed as cell growth inhibition measured after 48 hrs by MTT assay. The settings on record: U-937, 48 h. The assay is classed as functional, cell-based. Background: Tetrazolium dyes change colour on reduction, which living cells bring about.
In assay [1] the test system is MCF7. The assay is described as follows: Antiproliferative activity against human MCF7 cells assessed as cell growth inhibition measured after 48 hrs by MTT assay. The format is functional, cell-based. Conditions: MCF7, 48 h.
For another assay, the system named is MGC-803. The assay is described as follows: Antiproliferative activity against human MGC-803 cells assessed as cell growth inhibition measured after 48 hrs by MTT assay. Conditions: MGC-803, 48 h. The format is functional, cell-based.
In assay [2] the target is T1, Sphingosine kinase 2 (Homo sapiens, UniProt Q9NRA0).
T1 sequence (Q9NRA0 whole entry): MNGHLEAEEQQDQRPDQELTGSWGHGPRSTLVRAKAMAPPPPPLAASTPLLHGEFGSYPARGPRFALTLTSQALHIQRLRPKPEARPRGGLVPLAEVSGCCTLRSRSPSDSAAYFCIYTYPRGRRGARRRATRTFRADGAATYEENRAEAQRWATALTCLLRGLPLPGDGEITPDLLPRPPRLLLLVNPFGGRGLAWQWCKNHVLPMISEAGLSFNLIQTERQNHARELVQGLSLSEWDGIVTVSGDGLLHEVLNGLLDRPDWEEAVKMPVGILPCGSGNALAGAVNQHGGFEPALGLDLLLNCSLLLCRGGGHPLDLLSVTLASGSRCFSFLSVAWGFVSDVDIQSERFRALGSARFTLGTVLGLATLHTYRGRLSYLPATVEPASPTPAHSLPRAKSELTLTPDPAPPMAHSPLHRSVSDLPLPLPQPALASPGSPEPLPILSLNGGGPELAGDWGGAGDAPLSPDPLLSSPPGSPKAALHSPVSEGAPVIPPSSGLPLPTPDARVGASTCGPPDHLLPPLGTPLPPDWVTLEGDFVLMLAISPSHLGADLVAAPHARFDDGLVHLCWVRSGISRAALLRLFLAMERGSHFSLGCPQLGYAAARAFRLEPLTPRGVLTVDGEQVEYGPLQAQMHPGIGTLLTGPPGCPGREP
The assay is described as follows: Inhibition of SphK2 (unknown origin) using NBD-Sph as substrate by fluorescent plate reader analysis.

For assay [3], the target named is T2, Sphingosine kinase 2 (Homo sapiens) (UniProt Q9NRA0).
T2 sequence (whole entry): T1 sequence (Q9NRA0 whole entry)
The assay is described as follows: Inhibition of SphK2 (unknown origin) using NBD-Sph as substrate at 10 uM by fluorescent plate reader analysis relative to control.

The next assay has as its target Sphingosine kinase 1 (Homo sapiens, UniProt Q9NYA1). The assay is described as follows: Inhibition of SphK1 (unknown origin) using D-Sph as substrate incubated for 40 mins by ADP-Glo Plus luminescence kinase assay. (In general: In ADP-Glo the light output rises with the ADP produced.)
For assay [4], the system named is MCF7. The assay is described as follows: Inhibition of cell migration in human MCF7 cells assessed as reduction in scratch healing rate measured after 24 to 48 hrs by microscopic analysis. The format is functional, cell-based. Conditions: dose 20-100 µM, time lower 24.0 hrs, time upper […].
The target in assay [5] is T1, Sphingosine kinase 2. The assay is described as follows: Inhibition of recombinant SphK2 (unknown origin) using sphingosine as substrate assessed as inhibition constant by Lineweaver-burk plot analysis.

Sequence of Sphingosine kinase 1 (Q9NYA1 whole entry): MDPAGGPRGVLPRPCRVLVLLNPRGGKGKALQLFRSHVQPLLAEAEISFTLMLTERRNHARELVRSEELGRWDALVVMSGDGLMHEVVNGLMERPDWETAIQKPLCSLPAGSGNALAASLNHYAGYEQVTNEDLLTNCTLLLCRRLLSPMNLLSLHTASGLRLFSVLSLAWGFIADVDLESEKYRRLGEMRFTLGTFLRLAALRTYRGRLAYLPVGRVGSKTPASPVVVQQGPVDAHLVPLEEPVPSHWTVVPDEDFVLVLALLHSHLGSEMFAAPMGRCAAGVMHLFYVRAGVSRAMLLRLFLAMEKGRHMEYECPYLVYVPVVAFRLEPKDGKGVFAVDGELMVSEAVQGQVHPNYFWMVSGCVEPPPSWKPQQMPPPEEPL

Usually IC50 stands for the concentration that inhibits the measured activity by half. With `NC(=O)[C@H]1CCCN1C(=O)c1ccc(COc2cccc(OCc3ccccc3)c2)cc1`, the IC50 was 45.6 µM with U-937, more than 100 µM with MCF7 [1], more than 81.5 µM in the assay with MGC-803 and 0.96 µM at Sphingosine kinase 2 [2].
In general, inhibition refers to the percentage by which the read-out fell short of the control. For the compound `NC(=O)CNC(=O)c1ccc(OCc2noc(-c3ccc(Cl)cc3)n2)cc1`, the 50% inhibitory concentration (IC50) with U-937 is 10 µM; in the assay with MCF7 [1], 55.4 µM; with MGC-803, 29.8 µM; against Sphingosine kinase 2 [2], more than 10 µM. The same compound registered an inhibition in assay [3] of less than 50%.
With `NCCNC(=O)c1ccc(COc2cccc(OCc3ccccc3)c2)cc1`, the IC50 turned out to be 51.4 µM with U-937, 53.5 µM in the assay on MCF7 [1], 25.1 µM in the assay with MGC-803 and 0.0416 µM on Sphingosine kinase 2 [2].
The corresponding values for `NC(=O)[C@@H]1CCCN1C(=O)c1ccc(OCc2noc(-c3ccc(C(F)(F)F)cc3)n2)cc1` are 25.6 µM, 12.8 µM, 22.9 µM and more than 10 µM.
For `NC(=O)[C@@H]1CCCN1C(=O)c1ccc(COc2cccc(OCc3ccccc3)c2)cc1`, the IC50 in the assay on U-937 is more than 100 µM; at Sphingosine kinase 1, 66.2 µM; with MCF7 [1], more than 100 µM; with MGC-803, 38.6 µM; against Sphingosine kinase 2 [2], more than 10 µM.
Take `O=C(c1ccc(COc2cccc(OCc3ccccc3)c2)cc1)N1CCC[C@@H]1CO`: the half-maximal inhibitory concentration (IC50) in the assay on U-937 stood at 69.5 µM; in the assay on MCF7 [1], 30.5 µM; in the assay on MGC-803, 61.8 µM; at Sphingosine kinase 2 [2], 1.23 µM.
`O=C(c1ccc(OCc2noc(-c3ccc(C(F)(F)F)cc3)n2)cc1)N1CCC[C@H]1CO`: the half-maximal inhibitory concentration (IC50) in the assay with U-937 is 29.4 µM; in the assay with MCF7 [1] it was 51.9 µM; in the assay on MGC-803 it was 43 µM; against Sphingosine kinase 2 [2], 2.46 µM.
In the case of `NC(=O)[C@H]1CCCN1C(=O)c1ccc(OCc2noc(-c3ccc(C(F)(F)F)cc3)n2)cc1`, the IC50 in the assay on U-937 amounted to 25.6 µM; at Sphingosine kinase 1, 21.9 µM; with MCF7 [1], 24.4 µM; in the assay with MGC-803, 19.2 µM; at Sphingosine kinase 2 [2], 0.0024 µM. Also, the inhibition entry in the assay on MCF7 [4] was “Dose-Dependent Effect”.
Take `NC(=O)[C@@H]1CCCN1C(=O)c1ccc(OCc2noc(-c3ccc(Cl)cc3)n2)cc1`: the IC50 in the assay with U-937 is 31.2 µM; with MCF7 [1] it was more than 100 µM; in the assay on MGC-803 it was 40.6 µM; against Sphingosine kinase 2 [2], more than 10 µM. Further, the inhibition in assay [3] is less than 50%.
On to `O=C(NCCO)c1ccc(OCc2noc(-c3ccc(Cl)cc3)n2)cc1`, for which the 50% inhibitory concentration (IC50) was 20.1 µM in the assay with U-937, 55.2 µM in the assay on MCF7 [1], 37 µM in the assay with MGC-803 and more than 10 µM on Sphingosine kinase 2 [2]. This compound also gave an inhibition in assay [3] of less than 50%.
With `NC(=O)CNC(=O)c1ccc(OCc2noc(-c3ccc(C(F)(F)F)cc3)n2)cc1`, the half-inhibitory concentration (IC50) was 8.44 µM in the assay with U-937, 39.7 µM in the assay on MCF7 [1], 10.9 µM in the assay on MGC-803 and more than 10 µM on Sphingosine kinase 2 [2].
Take `O=C(c1ccc(COc2cccc(OCc3ccccc3)c2)cc1)N1CCC[C@H]1CO`: the half-maximal inhibitory concentration (IC50) in the assay with U-937 was 29.9 µM; with MCF7 [1], more than 100 µM; in the assay on MGC-803, more than 79.8 µM; against Sphingosine kinase 2 [2], more than 10 µM. In addition, in assay [3], the inhibition is less than 50%.
Consider `OCC1CCCN1Cc1ccc(COc2cccc(OCc3ccccc3)c2)cc1` (single isomer, unassigned), for which the IC50 with U-937 is more than 80.2 µM; on Sphingosine kinase 1, 0.446 µM; in the assay on MCF7 [1], more than 100 µM; in the assay with MGC-803, 15.7 µM; against Sphingosine kinase 2 [2] it was 0.0115 µM.
`CCCCCOc1ccc2cc(-c3noc([C@@H]4[C@@H](O)CCN4C(=N)N)n3)ccc2c1` displayed a half-inhibitory concentration (IC50) at Sphingosine kinase 2 [2] of 4 µM.
Take `NCCNC(=O)c1ccc(OCc2noc(-c3ccc(Cl)cc3)n2)cc1`: the half-inhibitory concentration (IC50) in the assay with U-937 was 31.4 µM; on Sphingosine kinase 1 it was 1.47 µM; in the assay on MCF7 [1], 54 µM; with MGC-803 it was 42 µM; on Sphingosine kinase 2 [2] it was more than 10 µM. In addition, the inhibition in assay [3] is less than 50%.
In the case of `O=C(NCCO)c1ccc(COc2cccc(OCc3ccccc3)c2)cc1`, the half-inhibitory concentration (IC50) was 34.7 µM with U-937; 35.6 µM on Sphingosine kinase 1; 34.7 µM with MCF7 [1]; 37.7 µM in the assay with MGC-803; 1.25 µM against Sphingosine kinase 2 [2].
Turning to `O=C(c1ccc(OCc2noc(-c3ccc(C(F)(F)F)cc3)n2)cc1)N1CCC[C@@H]1CO`, the half-maximal inhibitory concentration (IC50) with U-937 turned out to be 51.1 µM; on Sphingosine kinase 1, 17.7 µM; in the assay on MCF7 [1], 21.1 µM; in the assay on MGC-803, 35.9 µM; against Sphingosine kinase 2 [2] it was 0.00343 µM. Besides, in the assay with MCF7 [4], the inhibition entry is “Dose-Dependent Effect”.
Regarding `O=C(c1ccc(OCc2noc(-c3ccc(Cl)cc3)n2)cc1)N1CCC[C@@H]1CO`, the half-inhibitory concentration (IC50) was 2.95 µM in the assay with U-937; 7.76 µM at Sphingosine kinase 1; 45.3 µM with MCF7 [1]; 40.3 µM with MGC-803; more than 10 µM against Sphingosine kinase 2 [2]. The compound also showed an inhibition in assay [3] of less than 50%.
In the case of `NCCNC(=O)c1ccc(OCc2noc(-c3ccc(C(F)(F)F)cc3)n2)cc1`, the IC50 was 32.9 µM with U-937, 39.6 µM in the assay on MCF7 [1], 40.8 µM with MGC-803 and more than 10 µM on Sphingosine kinase 2 [2].
On to `NC(=O)CNCc1ccc(COc2cccc(OCc3ccccc3)c2)cc1`, for which the IC50 in the assay with U-937 is more than 82.3 µM; on Sphingosine kinase 1, 30.4 µM; with MCF7 [1] it was 42.7 µM; with MGC-803, 55.3 µM; at Sphingosine kinase 2 [2], 0.0462 µM.
For `O=C(NCCO)c1ccc(OCc2noc(-c3ccc(C(F)(F)F)cc3)n2)cc1`, the IC50 with U-937 came to 68.9 µM; in the assay on MCF7 [1], 58 µM; in the assay with MGC-803, 26.1 µM; at Sphingosine kinase 2 [2] it was 0.0358 µM.
As for `O=C(c1ccc(OCc2noc(-c3ccc(Cl)cc3)n2)cc1)N1CCC[C@H]1CO`, the IC50 in the assay with U-937 is 17.3 µM; at Sphingosine kinase 1 it was 8.96 µM; in the assay with MCF7 [1], 8.61 µM; with MGC-803, 22.9 µM; at Sphingosine kinase 2 [2] it was more than 10 µM. In assay [3], the inhibition was less than 50%.
A word on the Ki: it is the equilibrium dissociation constant of an inhibitor or competing ligand from its target. In the case of `CCCCOc1ccc(CC/C=C2\SC(=O)N(CCN)C2=O)cc1`, the inhibitory constant (Ki) on Sphingosine kinase 2 [5] worked out at 6.5 µM.
On to `OC[C@@H]1CCCN1Cc1ccc(COc2cccc(OCc3ccccc3)c2)cc1`, for which the half-inhibitory concentration (IC50) in the assay on U-937 was 37.6 µM; at Sphingosine kinase 1, 0.917 µM; in the assay on MCF7 [1], more than 100 µM; with MGC-803 it was 32.2 µM; against Sphingosine kinase 2 [2] it was 0.00191 µM.
Consider `NC(=O)CNC(=O)c1ccc(COc2cccc(OCc3ccccc3)c2)cc1`, for which the IC50 stood at 32.7 µM with U-937, 20.3 µM in the assay with MCF7 [1], 33.8 µM in the assay with MGC-803 and 0.0115 µM on Sphingosine kinase 2 [2].
Turning to `NC(=O)[C@@H]1CCCN1Cc1ccc(COc2cccc(OCc3ccccc3)c2)cc1`, the IC50 was 43.3 µM with U-937, 21.5 µM in the assay on MCF7 [1], 63.6 µM in the assay with MGC-803 and more than 10 µM at Sphingosine kinase 2 [2].
For the compound `NC(=O)[C@H]1CCCN1Cc1ccc(COc2cccc(OCc3ccccc3)c2)cc1`, the IC50 with U-937 was 41.5 µM; at Sphingosine kinase 1, 0.924 µM; in the assay with MCF7 [1], 18.3 µM; in the assay on MGC-803 it was 65.2 µM; on Sphingosine kinase 2 [2] it was more than 10 µM.
For `NC(=O)[C@H]1CCCN1C(=O)c1ccc(OCc2noc(-c3ccc(Cl)cc3)n2)cc1`, the IC50 in the assay on U-937 is 47.8 µM; in the assay on MCF7 [1] it was 7.63 µM; in the assay on MGC-803 it was 20.2 µM; at Sphingosine kinase 2 [2], more than 10 µM. Also, the inhibition in assay [3] was less than 50%.
